Series [1] in a line: Crystal form after standing at 20° C. to 30° C., examined by powder X-ray diffraction. Format: physicochemical. The following applies: left at a temperature between 20° C. and 30° C. for approximately 1 year. On the procedure: (§1) The powder X-ray diffraction spectrum was measured in an angle of diffraction that ranged from 3° to 40°, according to the general test method of the Pharmacopoeia of Japan, using RAD-2B diffractometer (radiation source: CuKα) manufactured by Rigaku Denki. During the measurement, voltage/current was set at 35 kV/20 mA, and the scan speed was set at 5°/min.
(1) The anhydrous tetomilast type B crystal obtained in Reference example 1 (3) was left at a temperature between 20° C. and 30° C. for approximately 1 year, and thereafter, the crystal form thereof was examined by powder X-ray diffraction.

Series [2] is described as follows: Transformation of type B crystal to type A crystal while stirred as a suspension in acetone-water, crystal form by powder X-ray diffraction. It is filed as physicochemical. The following applies: 5 g suspended in 40 ml acetone and 10 ml water. On the procedure:
as §1
The mixing ratio of a mixture consisting of an anhydrous tetomilast type A crystal and an anhydrous tetomilast type B crystal was obtained by comparing the powder X-ray diffraction spectrum of the above mixture, with the powder X-ray diffraction spectrum of a mixture formed by mixing a pure anhydrous tetomilast type A crystal and a pure anhydrous tetomilast type B crystal at various ratios.
Thermal transformation from an anhydrous tetomilast type B crystal to an anhydrous tetomilast type A crystal was confirmed by the means described in (1) to (3) below:
(§2) (2) 5 g of the anhydrous tetomilast type B crystal obtained in Reference example 1 (3) was suspended in a solution consisting of 40 ml of acetone and 10 ml of water, and the obtained mixture was then stirred at 20° C. At that time, sampling was carried out at intervals of 15 minutes, 30 minutes, 60 minutes, and 120 minutes, and each of the obtained samples was subjected to powder X-ray diffraction to examine the crystal form.
as §2, with “(3)” for “(2)”, “40°” for “20°”, “form. As a result, it could be confirmed that the sample collected after stirring for 15 minutes was a mixture consisting of an anhydrous tetomilast type B crystal and an anhydrous tetomilast type A crystal (A:B=50:50).” for “form.”

Each structure is given as a SMILES string.

Turning to `CCOc1ccc(-c2nc(-c3cccc(C(=O)O)n3)cs2)cc1OCC` [anhydrous tetomilast type B crystal, 2-(3,4-diethoxyphenyl)-4-(2-carboxy-6-pyridyl)thiazole], the “crystal form by powder X-ray diffraction” value in series [1] is given as “maintained the form as an anhydrous tetomilast type B crystal”; in series [2] (stirred at 20° C., 15 minutes), “maintained the form as an anhydrous tetomilast type B crystal”; in series [2] (stirred at 20° C., 30 minutes) it was “maintained the form as an anhydrous tetomilast type B crystal”; in series [2] (stirred at 20° C., 60 minutes), “maintained the form as an anhydrous tetomilast type B crystal”; in series [2] (stirred at 40° C., 30 minutes) it was “changed to an anhydrous tetomilast type A crystal”; in series [2] (stirred at 40° C., 60 minutes) it was “changed to an anhydrous tetomilast type A crystal”. The “crystal form by powder X-ray diffraction” value in series [2] (stirred at 40° C., 120 minutes) is on record as “changed to an anhydrous tetomilast type A crystal”.
